From patent US20080230094A1, “METHOD TO INHIBIT GROWTH OF MICROORGANISMS IN AQUEOUS SYSTEMS AND ON SUBSTRATES USING PERSULFATE AND A BROMIDE” (Buckman Laboratories International, Inc., priority 2007, published 2008)

Tested on: Pseudomonas aeruginosa
Assay: Biocidal efficacy in pulp slurry inoculated with Pseudomonas aeruginosa (plate count, log reduction)
Format: cell-based
Details: 1000 ppm as pure compound in pulp slurry; 24 hr incubation
Experimental: A concentrated solution of active biocidal composition was prepared by mixing 44% (w/v) of aqueous ammonium persulfate with 40% (w/v) aqueous sodium bromide in equal volume. The final mixture contains 22% ammonium persulfate and 20% NaBr at pH 2.2. […] Four hours after mixing, the concentrated solution was diluted with water to contain 5% ammonium persulfate. This diluted solution (5%) was then added to 50 ml pulp slurry to give a biocidal concentration of 10 ppm (as ammonium persulfate) in pulp slurry. The pulp slurry was then inoculated with 3×10^6 cells/ml of Pseudomonas aeruginosa, incubated at room temperature for 24 hr, plated in nutrient agar. The colony forming units per milliliter (cfu/ml) was counted and compared with each individual component acting alone.
The pulp slurry contains white bleached dry pulp at 5 g/L; cationic starch at 10 bl/ton dry pulp; CaCO3 at 300 bl/ton dry pulp; ASA size at 3-4 lb/ton dry pulp; retention aids at 0.5-1.0 bl/ton dry pulp; defoamer at 250 g/ton dry pulp. The pulp slurry has a consistency of about 0.5 to 0.7%. The final pH of the pulp substrate after autoclave is about 8.0.

`[Br-].[Na+]` [NaBr, sodium bromide] was tested, and the CFU/ml was 4.2 × 10^6 CFU/ml and the “Log Reduction” value was 0.00.
